Measured values from publication PMC12627232 (MedComm, 2025).

Experiments:
[1] = test system: Jurkat; experiment: CCK-8 antiproliferation assay; assay type: cell-based; conditions: Homo sapiens, 48 h treatment
Protocol: (§1) Cell lines purchased from the Cell Bank of Type Culture Collection of the Chinese Academy of Sciences (Shanghai, China) were passaged after resuscitation. […] The third to tenth passages of cells were used for experiments. […] After incubation, 20 µL CCK‐8 solution (MeilunBio) was added. Two hours later, absorption was measured by a Varioskan plate at 450 nm. Inhibition curves and IC50 values were simulated and calculated using the log(inhibitor) versus response (three parameters) mode via GraphPad Prism software.

[2] = test system: HL-60; experiment: CCK-8 antiproliferation assay; assay type: cell-based; conditions: Homo sapiens, 48 h treatment
Protocol: as §1

[3] = test system: NCI-H929; experiment: CCK-8 antiproliferation assay; assay type: cell-based; conditions: Homo sapiens, 48 h treatment
Protocol: as §1

[4] = test system: AGS; experiment: CCK-8 antiproliferation assay; assay type: cell-based; conditions: Homo sapiens, 48 h treatment
Protocol: as §1

[5] = test system: PC-3; experiment: CCK-8 antiproliferation assay; assay type: cell-based; conditions: Homo sapiens, 48 h treatment
Protocol: as §1

[6] = test system: RPMI-8226; experiment: CCK-8 antiproliferation assay; assay type: cell-based; conditions: Homo sapiens, 48 h treatment
Protocol: as §1

[7] = test system: MCF-7; experiment: CCK-8 antiproliferation assay; assay type: cell-based; conditions: Homo sapiens, MCF7, 48 h treatment
Protocol: as §1

[8] = test system: KM3; experiment: CCK-8 antiproliferation assay; assay type: cell-based; conditions: Homo sapiens, 48 h treatment
Protocol: as §1

[9] = test system: MC38 syngeneic model; experiment: MC38 syngeneic model; assay type: in vivo
Protocol: C57BL/6J mice were obtained from HFK Bioscience (Beijing, China) and fed in laminar flow cabinets under SPF conditions. With the approval of the ethics committee of Shandong University, the animal experiments were conducted. […]. By the time tumors reached certain volumes, SDFZ‐8 treatment (SDFZ‐8 in PBS solution containing 5% DMSO, 60 mg/kg, qd, i.g.) was started, with five animals per treatment group. Body weight and tumor size were measured every day during the 14‐day treatment.

[10] = In vivo pharmacokinetic study; conditions: Sprague-Dawley, rat, plasma, male SD rats
Protocol: The compound was prepared in a 1 mg/mL working solution using DMSO/solutol/saline. SD rats (6–8 weeks old, 180–200 g, male) were purchased from Beijing HFK Bioscience Co., Ltd. (Beijing, China) and fed in accordance with the guidelines for the care and use of laboratory animals of the ethical committee of Shandong University. The doses were 2.5 mg/kg (i.v.) and 10 mg/kg (i.g.), with three animals per treatment group. Blood samples were collected from the jugular vein at different time points using heparin sodium anticoagulation tubes. After anesthetizing rats with ether, blood samples were placed in an ice water mixture for 15 min, then centrifuged at 3000×g for 3 min to separate the plasma, and stored at −20°C. The LC–MS/MS was used to detect the concentration of the analyte at each time point, and the pharmacokinetic parameters were calculated using WinNolin8.2 software.

[11] = test system: MDA-MB-231 xenograft; experiment: MDA-MB-231 xenograft model; assay type: in vivo, BALB/c-nu mice
Protocol: BALB/c‐nu mice were obtained from Pengyue Co. Ltd. (Jinan, China) and were fed in laminar flow cabinets under specific pathogen‐free (SPF) conditions. With the approval of ethics committee of Shandong University, the animal experiments were conducted. To establish the MDA‐MB‐231 xenograft model, BALB/c‐nu mice (3–4 weeks old and 15–18 g body weight, male) were selected and injected subcutaneously into the armpits with 1.2 × 10^7 MDA‐MB‐231 cells. […] Body weight and tumor size were measured every 3 days during the 22‐day treatment.

[12] = test system: MDA-MB-231 cells; experiment: Colony formation assay; assay type: cell-based, human; conditions: 2 µM, 48 h
Protocol: The colony formation assay is performed by seeding 1000 MDA‐MB‐231 cells per well into 6‐well plates and allowing them to adhere overnight. […] Once colonies are visible (≥50 cells per colony), the medium is removed, and cells are gently washed with PBS, fixed with 4% paraformaldehyde for 15 min, and stained with Giemsa stain solution for 30 min. Excess stain is rinsed with water, and plates are air‐dried. Colonies are then imaged.

[13] = biological target: T1, HDAC7 (Homo sapiens, UniProt Q8WUI4); experiment: HDACs enzymatic assay HDAC7; assay type: biochemical; conditions: Class IIa
T1 construct: purchased BPS BIOSCIENCE Inc 50007
T1 sequence (Q8WUI4 whole entry): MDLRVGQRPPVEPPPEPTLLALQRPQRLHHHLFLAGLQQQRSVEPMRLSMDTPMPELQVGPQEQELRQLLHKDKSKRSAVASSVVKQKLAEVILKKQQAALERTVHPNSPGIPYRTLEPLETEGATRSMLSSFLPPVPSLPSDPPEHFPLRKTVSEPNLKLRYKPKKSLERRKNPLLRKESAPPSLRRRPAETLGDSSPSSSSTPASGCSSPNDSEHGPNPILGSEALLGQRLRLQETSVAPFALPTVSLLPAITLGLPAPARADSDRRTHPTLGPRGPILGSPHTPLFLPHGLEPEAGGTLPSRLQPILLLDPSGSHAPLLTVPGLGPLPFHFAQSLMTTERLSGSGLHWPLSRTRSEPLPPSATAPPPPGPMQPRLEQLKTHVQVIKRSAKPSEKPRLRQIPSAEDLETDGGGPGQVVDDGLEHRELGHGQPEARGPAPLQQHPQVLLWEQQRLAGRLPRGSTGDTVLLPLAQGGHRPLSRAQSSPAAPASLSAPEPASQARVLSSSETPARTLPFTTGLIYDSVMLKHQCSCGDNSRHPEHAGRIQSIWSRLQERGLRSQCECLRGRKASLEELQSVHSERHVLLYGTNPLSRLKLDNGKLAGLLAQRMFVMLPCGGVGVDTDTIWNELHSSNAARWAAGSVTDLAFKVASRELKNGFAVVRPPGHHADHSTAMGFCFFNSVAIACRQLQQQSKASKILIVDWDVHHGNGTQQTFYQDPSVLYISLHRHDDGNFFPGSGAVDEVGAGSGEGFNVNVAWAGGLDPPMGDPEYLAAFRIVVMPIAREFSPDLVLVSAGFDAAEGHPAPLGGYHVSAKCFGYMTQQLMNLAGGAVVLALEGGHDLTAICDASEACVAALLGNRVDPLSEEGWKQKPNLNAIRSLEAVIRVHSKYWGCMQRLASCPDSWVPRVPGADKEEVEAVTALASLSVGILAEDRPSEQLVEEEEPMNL
Protocol: HDACs enzymatic assays were conducted according to our previous work. […] Substrates (Boc‐Lys(acetyl)‐AMC for HeLa nuclear extract, Ac‐Leu‐Gly‐Lys (Tfa)‐AMC for HDAC4, HDAC5, HDAC6, HDAC7, HDAC9, HDAC10, and HDAC11, Boc‐Lys(triflouroacetyl)‐AMC for HDAC8 and Ac‐Leu‐Gly‐Lys(acetyl)‐AMC for HDAC1, HDAC2, HDAC3) were added to the mixture. The blank group was set to no enzyme or drug but contains substrates and the control group was set to no drug but contains substrates and enzymes to each 96‐well plate. After 30 min of incubation at 37°C, the mixture was terminated with 1 mg/mL trypsin and 3 µM TSA. After another 30 min, the fluorescence intensity was measured using a Varioskan plate reader at 360/460 nm. […] The inhibition curves and IC50 values were simulated and calculated using the log(inhibitor) versus response (three parameters) mode in GraphPad Prism software.

## O=C(CCCCCCNC(=O)c1cc(OCCc2ccccc2)c2ccccc2n1)NO [SDFZ-8]
[1]
  IC50: 89 ± 1 nM
[2]
  IC50: 94 ± 4 nM
[3]
  IC50: 100 ± 5 nM
[4]
  IC50: 560 ± 20 nM
[5]
  IC50: 620 ± 70 nM
[6]
  IC50: 460 ± 30 nM
[7]
  IC50: 1960 ± 60 nM
[8]
  IC50: 100 ± 5 nM
[9]
  toxicity in organs (heart, liver, spleen, lung, kidney), H&E staining: low toxicity
[9]; C57BL/6J mice, SDFZ-8 60 mg/kg qd i.g., 14-day treatment
  TGI: 71%
[10]; iv, i.v. 2.5 mg/kg
  AUC(0-inf): 3120 ± 242 ng·h/mL
  AUC(0-t): 2730 ± 260 ng·h/mL
  Cmax: 1750 ± 498 ng/mL
  Tmax: 0.08 ± 0.01 h
  half-life: 2.29 ± 1.24 h
[10]; oral, i.g. 10 mg/kg vs i.v. 2.5 mg/kg, read-out: F% (oral bioavailability)
  bioavailability: 26.1%
[10]; po, i.g. 10 mg/kg
  AUC(0-inf): 3260 ± 663 ng·h/mL
  AUC(0-t): 3080 ± 206 ng·h/mL
  Cmax: 659 ± 63.1 ng/mL
  Tmax: 0.33 ± 0.14 h
  half-life: 5.74 ± 1.51 h
[11]; MDA-MB-231 xenograft BALB/c-nu mice, 60 mg/kg/day
  general health of the mice: without adversely affecting the general health of the mice
[11]; MDA-MB-231 xenograft, BALB/c-nu mice, 60 mg/kg/day oral gavage, 22 days
  TGI: 76%
[12]
  colony formation of MDA-MB-231: significantly inhibited
[13]
  IC50: > 10000 nM
